Each structure is given as a SMILES string.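 Interpolation was linear, between the two tested concentrations surrounding the appropriate level; five concentrations were tested over 48 hours in 96-well plates. At the GI50, growth is halved. TGI is the concentration that stops growth completely.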

Among the data in PubChem BioAssay (NCI) are TGI and GI50 values, retold here.

Among the test systems are M19-MEL melanoma; XF 498 CNS; DLD-1 colon; DMS 114 small cell lung; DMS 273 small cell lung; KM20L2 colon; SNB-78 CNS; RXF-631 renal.
What all share (test): NCI anticancer screen, dose series, 48 h

With `FC(F)(F)P1C2C=CC(CC2)C1(F)F` (configuration not stated), the TGI in the experiment with M19-MEL melanoma, in the experiment with XF 498 CNS, in the experiment on DLD-1 colon, in the experiment with DMS 114 small cell lung, in the experiment with DMS 273 small cell lung and with KM20L2 colon was > 100 µM throughout. Also, the TGI in the experiment on SNB-78 CNS was > 100 µM.

On to `O=C(O)C(CS)NCc1c2ccccc2[n+]([O-])c2ccccc12` (configuration not stated), for which the TGI was > 100 µM in the experiment with M19-MEL melanoma; > 100 µM in the experiment with DLD-1 colon; 68.6 µM in the experiment on DMS 114 small cell lung; > 100 µM in the experiment on DMS 273 small cell lung; > 100 µM in the experiment on KM20L2 colon; > 100 µM in the experiment with SNB-78 CNS. The TGI with RXF-631 renal is > 100 µM.

Take `Cc1c(C(=O)CSc2nc3ccc([N+](=O)[O-])cc3[nH]2)c(=O)n(-c2ccccc2)n1C`: the TGI with M19-MEL melanoma, in the experiment with XF 498 CNS, in the experiment with DLD-1 colon, in the experiment on DMS 114 small cell lung and with DMS 273 small cell lung was > 100 µM throughout.

For the compound `CC(=O)O[C@H]1C(=O)[C@@]2(C)C([C@H](OC(=O)c3ccccc3)[C@]3(O)C[C@H](OC(=O)[C@H](O)[C@H](NC(=O)c4ccccc4)c4ccc(Cl)cc4)C(C)=C1C3(C)C)C1(OC(C)=O)CO[C@@H]1C[C@@H]2O` (some centres not stated), in the experiment with XF 498 CNS, the GI50 is 18.2 nM. Further, the TGI in the experiment on DMS 114 small cell lung is 0.000649 µM; in the experiment with RXF-631 renal, > 100 µM.

For the compound `CCN(CC)CCNC(=O)c1ccc([N+](=O)[O-])cc1OC`, the TGI with M19-MEL melanoma, in the experiment on DLD-1 colon, with DMS 114 small cell lung, with DMS 273 small cell lung, in the experiment with KM20L2 colon and in the experiment with SNB-78 CNS was > 100 µM in each case.

For the compound `CCC1(OC(=O)CN2CCN(CCO)CC2)C(=O)OCc2c1cc1n(c2=O)Cc2cc3ccccc3nc2-1` (configuration not stated), the TGI in the experiment with M19-MEL melanoma is 6.99 µM; with XF 498 CNS, 14.2 µM; in the experiment on DLD-1 colon, > 100 µM; with DMS 114 small cell lung it was 16.8 µM; in the experiment with DMS 273 small cell lung, 0.367 µM; in the experiment with KM20L2 colon, 7.46 µM. For the same compound, the TGI with SNB-78 CNS is > 100 µM.

Regarding `CCOc1ccc(N2C(=O)C3c4[nH]c5ccccc5c4C4CCC(C(C)(C)C)CC4C3C2=O)cc1` (configuration not stated), the TGI in the experiment with XF 498 CNS, with DLD-1 colon, with DMS 114 small cell lung, in the experiment with DMS 273 small cell lung, in the experiment on KM20L2 colon and in the experiment on SNB-78 CNS was > 100 µM throughout.

Regarding `O=C(Cc1ccccc1)NN1C(=O)C(Cl)C1c1cccc(O)c1` (configuration not stated), the TGI in the experiment with M19-MEL melanoma worked out at 35.8 µM; in the experiment with XF 498 CNS, 35.4 µM; in the experiment with DLD-1 colon, 31.1 µM; in the experiment with DMS 114 small cell lung, 29.4 µM; with DMS 273 small cell lung, 37.9 µM; in the experiment on KM20L2 colon, 32.2 µM. The compound also showed a TGI in the experiment with SNB-78 CNS of 73.6 µM.

Turning to `O=C1C=C(N2CCCC2)C=C(N2CCCC2)C1`, the TGI in the experiment on M19-MEL melanoma was 91.2 µM; in the experiment with XF 498 CNS, > 100 µM; in the experiment with DLD-1 colon, > 100 µM; with DMS 114 small cell lung, > 100 µM; in the experiment with DMS 273 small cell lung, > 100 µM; in the experiment on KM20L2 colon it was > 100 µM. Besides, in the experiment on SNB-78 CNS, the TGI was > 100 µM.

For `O=C1CC2CC=C[C@H]3c4cc5c(cc4C(=O)N1C23)OCO5` (some centres not stated), the TGI with M19-MEL melanoma, in the experiment with DLD-1 colon, with DMS 114 small cell lung, in the experiment with DMS 273 small cell lung, with KM20L2 colon and in the experiment on SNB-78 CNS was > 50 µM in each case.

On to `O=C1Nc2cccc3ncn(c23)C2=C1CCCC2`, for which the TGI with M19-MEL melanoma, in the experiment with DLD-1 colon, with DMS 114 small cell lung, in the experiment on DMS 273 small cell lung, with KM20L2 colon and with SNB-78 CNS was > 100 µM in each case.
